Measurements published in patent US20070270312A1, “Heteroaroyl-Substituted Serineamides” (priority 2004, published 2007).

Tests used:
Setaria viridis = test: greenhouse post-emergence herbicidal test, green foxtail; format: in vivo; settings: 2 to 4 weeks; for post-emergence action against green foxtail: application rate 1.0 kg/ha a.s.; for post-emergence control of green foxtail: application rate 0.5 kg/ha a.s.
From the text: (§1) The seeds of the test plants were sown separately for each species. For the post-emergence treatment, the test plants were first grown to a height of 3 to 15 cm, depending on the plant habit, and only then treated with the active ingredients which had been suspended or emulsified in water. For this purpose, the test plants were either sown directly and grown in the same containers, or they were first grown separately as seedlings and transplanted into the test containers a few days prior to treatment. The rate of application for the post-emergence treatment was 1.0 or 0.5 kg/ha of a.s. (active substance). Depending on the species, the plants were kept at 10-25° C. or 20-35° C. The test period extended over 2 to 4 weeks. During this time, the plants were tended, and their response to the individual treatments was evaluated. Evaluation was carried out using a scale from 0 to 100.100 means no emergence of the plants, or complete destruction of at least the aerial parts, and 0 means no damage, or normal course of growth. The plants used in the greenhouse experiments belonged to the following species: [table]

Amaranthus retroflexus = test: greenhouse post-emergence herbicidal test, pig weed; format: in vivo; settings: 2 to 4 weeks; for post-emergence action against pig weed: application rate 1.0 kg/ha a.s.; for post-emergence control of pig weed: application rate 0.5 kg/ha a.s.
From the text: as §1

Chenopodium album = test: greenhouse post-emergence herbicidal test, lambsquarters; format: in vivo; settings: 2 to 4 weeks; for post-emergence action against lambsquarters: application rate 1.0 kg/ha a.s.; for post-emergence control of lambsquarters: application rate 0.5 kg/ha a.s.
From the text: as §1

Row | Structure (SMILES) | post-emergence action against green foxtail (Setaria viridis) | post-emergence action against pig weed (Amaranthus retroflexus) | post-emergence action against lambsquarters (Chenopodium album) | post-emergence control of green foxtail (Setaria viridis) | post-emergence control of pig weed (Amaranthus retroflexus) | post-emergence control of lambsquarters (Chenopodium album) | melting point
1 | CNC(=O)C(NC(=O)c1cn(C)nc1C(F)(F)F)C(O)c1cccs1 (mixture of isomers) [Compound 3.5] | very good | very good | very good |  |  |  | 
2 | CNC(=O)C(NC(=O)c1cn(C)nc1C(F)(F)F)C(OC(=O)N(C)C)c1cccs1 (mixture of isomers) [Compound 3.6] |  |  |  | very good | very good | very good | 
3 | CNC(=O)C(NC(=O)c1cn(C)nc1C(F)(F)F)C(O)c1ccn[nH]1 (mixture of isomers) [Compound 3.17] | very good | very good | very good |  |  |  | 
4 | CNC(=O)C(NC(=O)c1cn(C)nc1C(F)(F)F)C(OC(C)=O)c1ccn[nH]1 (mixture of isomers) [Compound 3.19] |  |  |  | very good | very good | very good | 
5 | CNC(=O)C(NC(=O)c1cn(C)nc1C(F)(F)F)C(O)c1nccs1 (mixture of isomers) [Compound 3.51] | very good | very good | very good |  |  |  | 
6 | CNC(=O)C(NC(=O)c1cn(C)nc1C(F)(F)F)C(O)c1nccs1 (mixture of isomers) [Compound 3.52] | very good | very good | very good |  |  |  | 
7 | CNC(=O)C(NC(=O)c1cn(C)nc1C(F)(F)F)C(OC(C)=O)c1nccs1 (mixture of isomers) [Compound 3.54] |  |  |  | very good | very good | very good | 
8 | CNC(=O)C(NC(=O)c1cn(C)nc1C(F)(F)F)C(OC(=O)N(C)C)c1nccs1 (mixture of isomers) [Compound 3.57] | very good | very good | very good |  |  |  | 
9 | CNC(=O)C(NC(=O)c1cn(C)nc1C(F)(F)F)C(OC(=O)N(C)C)c1nccs1 (mixture of isomers) [Compound 3.59] | very good | very good | very good |  |  |  | 
10 | CNC(=O)C(NC(=O)c1cn(C)nc1C(F)(F)F)C(O)c1ccccn1 (racemic) [Compound 3.1] | very good | very good | very good |  |  |  | 
11 | CNC(=O)C(NC(=O)c1cn(C)nc1C(F)(F)F)C(O)c1cccc(C)n1 (racemic) [Compound 3.2] |  |  |  | very good | very good | very good | 
12 | CNC(=O)C(NC(=O)c1cscc1C(F)(F)F)C(O)c1cnc2ccccc2c1 (racemic) [Compound 3.15, rac-erythro-N-(2-hydroxy-1-methylcarbamoyl-2-quinolin-3-ylethyl)-4-trifluoromethyl-thiophene-3-carboxamide] |  |  |  |  |  |  | 206 °C
13 | CNC(=O)C(NC(=O)c1cn(C)nc1C(F)(F)F)C(O)c1ccn(C)n1 (racemic) [Compound 3.33] | very good | very good | very good |  |  |  | 
